From US9409870B2, “Compounds” (CHIESI FARMACEUTICI S.p.A., priority 2014, dated 2016)

molecular target: T1, human neutrophil elastase (HNE) (Homo sapiens, UniProt P08246); experiment: HNE enzyme activity assay (fluorogenic peptide substrate MeOSuc-Ala-Ala-Pro-Val-AMC); format: biochemical; conditions: human leukocyte elastase 0.00072 U/mL, substrate 100 μM, 25° C., 30 minutes, pH 7.5; at least two separate experiments; read-out: FINE inhibition (HNE enzyme inhibition, IC50 values)
T1 construct: purchased Sigma E8140
T1 sequence (P08246 30-247 limits assumed): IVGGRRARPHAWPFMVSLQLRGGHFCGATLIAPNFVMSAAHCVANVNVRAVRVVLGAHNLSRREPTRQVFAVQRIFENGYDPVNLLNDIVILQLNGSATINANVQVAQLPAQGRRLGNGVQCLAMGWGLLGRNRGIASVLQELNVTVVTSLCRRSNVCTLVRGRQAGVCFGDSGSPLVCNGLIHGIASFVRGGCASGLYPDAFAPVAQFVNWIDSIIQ
Procedure: Compounds of this invention were tested for potency in a human neutrophil elastase (HNE) enzyme activity assay.
Assays were performed in 96-well plates in a total assay volume of 100 μL. The final concentration of elastase enzyme (human leukocyte elastase, Sigma E8140) was 0.00072 U/mL. The peptide substrate (MeOSuc-Ala-Ala-Pro-Val-AMC, Calbiochem #324740) was used at a final concentration of 100 μM. The final concentration of DMSO was 1% in the assay buffer (0.05M Tris.HCl, 0.1M NaCl, 0.1M CaCl2, 0.0005% brij-35, pH 7.5). The enzymatic reaction was started by addition of the enzyme and incubated at 25° C. for 30 minutes. After incubation, the reaction was stopped by addition of soybean trypsin inhibitor (Sigma T9003) at a final concentration of 50 μg/well. Fluorescence was measured using a Molecular Devices fluorescence plate reader using 380 nm excitation and 460 nm emission wavelengths.
A dose response to each compound was performed and the effect of compound in each experiment was expressed as a percentage inhibition of the control enzyme fluorescence. Dose response curves were plotted and compound potency (IC50) was determined. Compounds were tested in at least two separate experiments.

Row | IC50 | Compound
1 | 1 to 10 nM | Cc1c(-c2ccnn2-c2ccc(C#N)cc2)n(C(=O)NCc2ccccn2)c(=O)n1-c1cccc(C(F)(F)F)c1 [Example 49, 5-[2-(4-Cyano-phenyl)-2H-pyrazol-3-yl]-4-methyl-2-oxo-3-(3-trifluoromethyl-phenyl)-2,3-dihydro-imidazole-1-carboxylic acid (pyridin-2-ylmethyl)-amide]
2 | 1 to 10 nM | Cc1c(-c2ccnn2-c2ccc(C#N)cc2)n(C(=O)NCc2cccnc2)c(=O)n1-c1cccc(C(F)(F)F)c1 [Example 50, 5-[2-(4-Cyano-phenyl)-2H-pyrazol-3-yl]-4-methyl-2-oxo-3-(3-trifluoromethyl-phenyl)-2,3-dihydro-imidazole-1-carboxylic acid (pyridin-3-ylmethyl)-amide]
3 | < 1 nM | Cc1c(-c2ccnn2-c2ccc(C#N)cc2)n(C(=O)NCc2ccncc2)c(=O)n1-c1cccc(C(F)(F)F)c1 [Example 51, 5-[2-(4-Cyano-phenyl)-2H-pyrazol-3-yl]-4-methyl-2-oxo-3-(3-trifluoromethyl-phenyl)-2,3-dihydro-imidazole-1-carboxylic acid (pyridin-4-ylmethyl)-amide]
4 | 1 to 10 nM | Cc1c(-c2ccnn2-c2ccc(C#N)cc2)n(C(=O)NCc2cnccn2)c(=O)n1-c1cccc(C(F)(F)F)c1 [Example 52, 5-[2-(4-Cyano-phenyl)-2H-pyrazol-3-yl]-4-methyl-2-oxo-3-(3-trifluoromethyl-phenyl)-2,3-dihydro-imidazole-1-carboxylic acid (pyrazin-2-ylmethyl)-amide]
5 | < 1 nM | Cc1c(-c2ccnn2-c2ccc(C#N)cc2)n(C(=O)N[C@@H]2CCC[C@H]2O)c(=O)n1-c1cccc(C(F)(F)F)c1 [Example 53, 5-[2-(4-Cyano-phenyl)-2H-pyrazol-3-yl]-4-methyl-2-oxo-3-(3-trifluoromethyl-phenyl)-2,3-dihydro-imidazole-1-carboxylic acid ((1R,2R)-2-hydroxy-cyclopentyl)-amide]
6 | 1 to 10 nM | Cc1c(-c2ccnn2-c2ccc(C#N)cc2)n(C(=O)NCC2CCN(C)CC2)c(=O)n1-c1cccc(C(F)(F)F)c1 [Example 54, 5-[2-(4-Cyano-phenyl)-2H-pyrazol-3-yl]-4-methyl-2-oxo-3-(3-trifluoromethyl-phenyl)-2,3-dihydro-imidazole-1-carboxylic acid (1-methyl-piperidin-4-ylmethyl)-amide]
7 | > 50 nM | Cc1c(-c2ccnn2-c2ccc(C#N)cc2S(C)(=O)=O)[nH]c(=O)n1-c1cccc(C(F)(F)F)c1 [Example 55, 3-Methanesulfonyl-4-{5-[5-methyl-2-oxo-1-(3-trifluoromethyl-phenyl)-2,3-dihydro-1H-imidazol-4-yl]-pyrazol-1-yl}-benzonitrile]
8 | 1 to 10 nM | Cc1c(-c2ccnn2-c2ccc(C#N)cc2Br)n(C(=O)NC2CCCC2)c(=O)n1-c1cccc(C(F)(F)F)c1 [Example 56, 5-[2-(2-Bromo-4-cyano-phenyl)-2H-pyrazol-3-yl]-4-methyl-2-oxo-3-(3-trifluoromethyl-phenyl)-2,3-dihydro-imidazole-1-carboxylic acid cyclopentylamide]
9 | 10 to 50 nM | Cc1c(-c2ccn(-c3ccc(C#N)cc3Br)n2)n(C(=O)NC2CCCC2)c(=O)n1-c1cccc(C(F)(F)F)c1 [Example 57, 5-[1-(2-Bromo-4-cyano-phenyl)-1H-pyrazol-3-yl]-4-methyl-2-oxo-3-(3-trifluoromethyl-phenyl)-2,3-dihydro-imidazole-1-carboxylic acid cyclopentylamide]
10 | < 1 nM | Cc1c(-c2ccnn2-c2ccc(C#N)cc2F)n(C(=O)NC2CCCC2)c(=O)n1-c1cccc(C(F)(F)F)c1 [Example 58, 5-[2-(4-Cyano-2-fluoro-phenyl)-2H-pyrazol-3-yl]-4-methyl-2-oxo-3-(3-trifluoromethyl-phenyl)-2,3-dihydro-imidazole-1-carboxylic acid cyclopentylamide]
11 | 10 to 50 nM | Cc1c(-c2nccn2-c2ccc(C#N)cc2)[nH]c(=O)n1-c1cccc(C(F)(F)F)c1 [Example 59, 4-[5′-Methyl-2′-oxo-1′-(3-trifluoromethyl-phenyl)-2′,3′-dihydro-1′H-[2,4]biimidazolyl-1-yl]-benzonitrile]
12 | < 1 nM | Cc1c(-c2nccn2-c2ccc(C#N)cc2)n(C(=O)NC2CCCC2)c(=O)n1-c1cccc(C(F)(F)F)c1 [Example 60, 1-(4-Cyano-phenyl)-5′-methyl-2′-oxo-1′-(3-trifluoromethyl-phenyl)-1′,2′-dihydro-1H-[2,4]biimidazolyl-3′-carboxylic acid cyclopentylamide]
13 | < 1 nM | Cc1c(-c2nccn2-c2ccc(C#N)cc2)n(C(=O)NC2CCC2)c(=O)n1-c1cccc(C(F)(F)F)c1 [Example 61, 1-(4-Cyano-phenyl)-5′-methyl-2′-oxo-1′-(3-trifluoromethyl-phenyl)-1′,2′-dihydro-1H-[2,4′]biimidazolyl-3′-carboxylic acid cyclobutylamide]
14 | < 1 nM | Cc1c(-c2nccn2-c2ccc(C#N)cc2)n(C(=O)NCc2ccc(S(C)(=O)=O)cc2)c(=O)n1-c1cccc(C(F)(F)F)c1 [Example 62, 1-(4-Cyano-phenyl)-5′-methyl-2′-oxo-1′-(3-trifluoromethyl-phenyl)-1′,2′-dihydro-1H-[2,4′]biimidazolyl-3′-carboxylic acid 4-methanesulfonyl-benzylamide]
15 | < 1 nM | Cc1c(-c2ncnn2-c2ccc(C#N)cc2)n(C(=O)NC2CCCC2)c(=O)n1-c1cccc(C(F)(F)F)c1 [Example 63, 5-[2-(4-Cyano-phenyl)-2H-[1,2,4]triazol-3-yl]-4-methyl-2-oxo-3-(3-trifluoromethyl-phenyl)-2,3-dihydro-imidazole-1-carboxylic acid cyclopentylamide]
